Measurements taken from US9612238B2 (priority 2011, dated 2017).
“Also recorded” adds a separate entry of the source.

Experiments:
[1] = system: RML scrapie-infected PK1 cells; format: cell-based; conditions: 1 μg/ml PIPLC, 26 hours
cell surface PrP = conditions: 1 μg/ml
[2] = system: cell surface PrP on LD9 cells; format: cell-based; conditions: 24 hours
22L prions = format: cell-based; conditions: for rebound of infectivity after treatment cessation (22L): 18 days post-infection, 6 days after treatment cessation; for infection of PK1 neuroblastoma cells by 22L prions (PrPSc western blot): pretreated 3 days, treated 12 days after infection, 9 and 18 days post-infection
[3] = system: cell surface PrP on N2a cells; format: cell-based
RML prions = format: cell-based; conditions: for rebound of infectivity after treatment cessation (RML): 18 days post-infection, 6 days after treatment cessation; for infection of PK1 neuroblastoma cells by RML prions (PrPSc western blot): pretreated 3 days, treated 12 days after infection, 9 and 18 days post-infection

phosphatidylinositol phospholipase C [PIPLC]
RI200 (reciprocal of the cell number required to give 200 spots) [1]: 5×10^−4
inhibition of infection ([1]; from RI200 values): 85%
cell surface PrP removed (cell surface PrP): approximately 50%

C[C@H]1CCC/C=C/[C@@H]2C[C@H](O)C[C@H]2[C@H](O)/C=C/C(=O)O1 [BFA, Brefeldine A]
toxicity to LD9 cells (cell viability, CELLTITER-GLO) (LD9 cells): none of the tested doses of BFA were toxic
PrP expression, percentage of the DMSO control ([2]; 384-well screening plates): 0%

C=CC[C@@H]1/C=C(\C)C[C@H](C)C[C@H](OC)[C@H]2O[C@@](O)(C(=O)C(=O)N3CCCC[C@H]3C(=O)O[C@H](/C(C)=C/[C@@H]3CC[C@@H](O)[C@H](OC)C3)[C@H](C)[C@@H](O)CC1=O)[C@H](C)C[C@@H]2OC [Tacrolimus]
rebound of infectivity after treatment cessation (22L) (22L prions): no rebound of infectivity
infection of PK1 neuroblastoma cells by 22L prions (PrPSc western blot) (22L prions): block infection
reduction of cell surface PrP, confirmation by secondary screening [3]: confirmed
reduction of PrP in the secondary assay, IN Cell analyzer quantification ([3]; at 30 (unit not given)): 73%
reduction of PrP in the secondary assay, flow cytometry ([3]; at 30 (unit not given)): 75%
reduction of PrP expression in the primary assay ([2]; 20 μM): 70%
rebound of infectivity after treatment cessation (RML) (RML prions): no rebound of infectivity
infection of PK1 neuroblastoma cells by RML prions (PrPSc western blot) (RML prions): block infection

CCCCCCCCCCCCCCCC[N+](C)(C)C [cetrimonium]
reduction of cell surface PrP, confirmation by secondary screening [3]: active

COc1ccc(CCN2CCC(Nc3nc4ccccc4n3Cc3ccc(F)cc3)CC2)cc1 [Astemizole]
rebound of infectivity after treatment cessation (22L) (22L prions): no rebound of infectivity
infection of PK1 neuroblastoma cells by 22L prions (PrPSc western blot) (22L prions): block infection
reduction of cell surface PrP, confirmation by secondary screening [3]: confirmed; also recorded: active
rebound of infectivity after treatment cessation (RML) (RML prions): no rebound of infectivity
infection of PK1 neuroblastoma cells by RML prions (PrPSc western blot) (RML prions): block infection

CC[C@@]1([C@@H]2O[C@@H]([C@H]3O[C@@](O)(CO)[C@H](C)C[C@@H]3C)C[C@@H]2C)CC[C@H]([C@]2(C)CC[C@]3(C[C@H](O)[C@@H](C)[C@@H]([C@@H](C)[C@@H](OC)[C@H](C)C(=O)O)O3)O2)O1 [Monensin]
reduction of cell surface PrP, confirmation by secondary screening [3]: active

CC[C@H]1CN2CCc3cc(OC)c(OC)cc3[C@@H]2C[C@@H]1C[C@H]1NCCc2cc(OC)c(OC)cc21 [Emetine]
reduction of cell surface PrP, confirmation by secondary screening [3]: active

CC[C@@H](C(=O)[C@@H](C)[C@@H](O)[C@H](C)CCc1ccc(C)c(O)c1C(=O)O)[C@H]1O[C@](CC)([C@H]2CC[C@](O)(CC)[C@H](C)O2)C[C@@H]1C [Lasalocid sodium]
reduction of cell surface PrP, confirmation by secondary screening [3]: confirmed; also recorded: active
